In ChEMBL document CHEMBL1132826, “6-Hydroxy-1,3-dioxin-4-ones as non-peptidic HIV protease inhibitors” (Bioorg Med Chem Lett, 2000):

How the values were obtained:
MT4 [1] = test: Cytotoxic concentration was measured in HIV-I IIIB infected MT-4 cells assay; type: functional; conditions: Homo sapiens
[2] = target: Human immunodeficiency virus type 1 protease (Human immunodeficiency virus 1, UniProt Q72874); test: Compound was evaluated for the inhibitory activity towards HIV protease
MT4 [3] = test: Compound was evaluated for the antiviral activity in HIV-I IIIB infected MT-4 cells assay; type: functional, cell-based; conditions: Homo sapiens
[4] = Ratio of compound cytotoxic concentration (CC50) to that of antiviral activity (EC50); type: functional

Row | Compound | IC50 [2] | CC50 (MT4 [1]) | EC50 (MT4 [3]) | SI [4]
1 | CCCC1(CCc2ccccc2)OC(=O)C(C(CC)c2cccc(NS(=O)(=O)c3ccc(N)cn3)c2)=C(O)O1 (stereo not given) | 0.013 µM | 70 µM | > 70 µM | <1
2 | CCCC1(CCc2ccccc2)OC(=O)C(C(CC)c2cccc(NS(=O)(=O)c3ccc(C#N)cc3)c2)=C(O)O1 (stereo not given) | 0.015 µM | 66.5 µM | > 66.5 µM | <1
3 | CCC[C@]1(CCc2ccccc2)OC(=O)C([C@H](CC)c2cccc(NS(=O)(=O)c3ccc(C(F)(F)F)cn3)c2)=C(O)O1 (racemic) | 0.05 µM |  |  | 

Continued, in another order:

Row | IC50 [2] | Compound | CC50 (MT4 [1]) | EC50 (MT4 [3]) | SI [4]
4 | 0.003 µM | CCCC1(CCc2ccccc2)OC(=O)C(C(CC)c2cccc(NS(=O)(=O)c3ccc(C#N)cn3)c2)=C(O)O1 (stereo not given) | 77 µM | 11.4 µM | 6.77
5 | 0.065 µM | CCCC1(CCc2ccccc2)OC(=O)C(C(CC)c2cccc(NS(=O)(=O)c3ccc([N+](=O)[O-])cn3)c2)=C(O)O1 (stereo not given) | 14.8 µM | > 14.8 µM | <1
6 | 0.01 µM | CCCC1(CCc2ccccc2)OC(=O)C(C(CC)c2cccc(NS(=O)(=O)c3ccc(C(F)(F)F)cn3)c2)=C(O)O1 (stereo not given) | 63 µM | 0.96 µM | 65.69
7 | 0.013 µM | CCCC1(CCc2ccccc2)OC(=O)C(C(CC)c2cccc(NS(=O)(=O)c3ccccn3)c2)=C(O)O1 (stereo not given) | > 178 µM | 86.7 µM | >2.05
